Measurements published in PMC2063102 (British Journal of Cancer, 1998).
Values joined by “and” are separate entries in the source; they are usually repeats but may differ in a detail not shown here. Equal entries are not always repeated.

Assays:
Format in all cases: in vivo, C3H/HeN mice
MDAH-MCa-4 tumours [1] = assay: Tumour blood flow by 99mTc pertechnetate wash-out (clearance rate constant k); settings: for time course of tumour blood flow inhibition: agent alone: 5-HT 700 µmol kg-1, DMXAA 70 µmol kg-1
MDAH-MCa-4 tumours [2] = assay: Tumour necrosis / residual viable tissue scored histologically (H&E sections)
MDAH-MCa-4 tumours [3] = assay: Tumour growth delay (time to reach 13 mm, treated minus control)

| Compound | dose-modifying factor (DMF) for blood flow inhibition by DMXAA (MDAH-MCa-4 tumours [1]; 5-HT 700 µmol kg-1 co-administered with DMXAA, at 4 h) | effect on tumour blood flow at 4 h (MDAH-MCa-4 tumours [1]; 5-HT alone 700 µmol kg-1 i.p.) | time course of tumour blood flow inhibition (MDAH-MCa-4 tumours [1]) | dose-modifying factor (DMF) for necrosis (DMXAA dose for 50% reduction of viable tissue) (MDAH-MCa-4 tumours [2]; 5-HT 700 µmol kg-1 co-administered with DMXAA, at 12 h) | necrotic fraction (MDAH-MCa-4 tumours [2]; 5-HT alone 700 µmol kg-1, 12 h (control 8.8%)) [%] | dose-modifying factor (DMF) for growth delay (DMXAA dose for 5-day growth delay) (MDAH-MCa-4 tumours [3]; 5-HT 700 µmol kg-1 co-administered with DMXAA) | Tumour growth delay, Expt 2 (MDAH-MCa-4 tumours [3]; single agent i.p.: bioreductive drug at its MTD, DMXAA 80 µmol kg-1, 5-HT 700 µmol kg-1, mean ± s.e.m.) | time to maximal tumour blood flow inhibition (MDAH-MCa-4 tumours [1]; DMXAA 20 µmol kg-1 co-administered with 5-HT 700 µmol kg-1) [h] | DMXAA dose giving 50% inhibition of tumour blood flow (MDAH-MCa-4 tumours [1]; DMXAA alone i.p., 4 h after administration) [µmol/kg] | necrosis (MDAH-MCa-4 tumours [2]; DMXAA 60 µmol kg-1 and above co-administered with 5-HT 700 µmol kg-1, 12 h) [%] | threshold dose for the necrotizing effect (MDAH-MCa-4 tumours [2]; DMXAA alone i.p., 12 h) | doubling time of fraction of viable tissue after treatment (MDAH-MCa-4 tumours [2]; between 1 and 4 days after DMXAA 80 µmol kg-1) [days] | predicted growth delay (from regrowth of residual viable tissue) (MDAH-MCa-4 tumours [3]; mouse, in vivo) | DMF relative to DMXAA alone (5-day growth delay) (MDAH-MCa-4 tumours [3]; mouse, in vivo) | factor lowering the DMXAA dose required for a 5-day growth delay (MDAH-MCa-4 tumours [3]; mouse, in vivo) | Tumour growth delay (one experiment only, column not discernible) (MDAH-MCa-4 tumours [3]; mouse, in vivo, ip) [days] |
| --- | --- | --- | --- | --- | --- | --- | --- | --- | --- | --- | --- | --- | --- | --- | --- | --- |
| NCCc1c[nH]c2ccc(O)cc12 [5-HT, 5-hydroxytryptamine] | > 3 | little effect | weak and transient inhibition | 2.3 | 38 | 2.0 | -2.9 + 0.7 days |  |  |  |  |  |  |  |  |  |
| Cc1ccc2c(=O)c3cccc(CC(=O)O)c3oc2c1C [DMXAA, 5,6-dimethylxanthenone-4-acetic acid] |  |  | progressive inhibition over 4 h with no recovery by 24 h |  |  |  |  | ≤ 1 | 60 | > 99 | approximately 60 µmol kg-1 | 1.0 | 6.0 days and 5.8 days |  |  |  |
| Nc1n[n+]([O-])c2ccccc2[n+]1[O-] [TIRA, tirapazamine] |  |  |  |  |  |  |  |  |  |  |  |  |  | 2.6 | 1.8 | 2.7 ± 1.4 |
